The text below walks through data of paper PMC5916772 (ACS combinatorial science, 2017).

The test system of test [1] is polyclonal anti-1′Nic antiserum. Kind of test: Competition ELISA of polyclonal anti-1′Nic antiserum on 1′Nic-BSA coated plates. As to conditions: pooled polyclonal anti-1′Nic antiserum; free HPs as competitors. The class given is binding, mice.
Test [2] deals with monoclonal anti-1′Nic antibody, mAb-5F3. The class given is binding, mice.

Turning to `O=C(CCCN1CCC[C@H]1c1cccnc1)NC1CCC(C(=O)O)CC1` (stereo partly drawn) [HP 2, 4-(4-((S)-2-(Pyridin-3-yl)pyrrolidin-1-yl)butanamido)-cyclohexanecarboxylic Acid], in test [1], the “HP-IC50/Nic-IC50 ratio, binding activity to antiserum” value is reported as “close to or larger than 1.0”.

Usually IC50 stands for the point on the concentration scale where inhibition reaches its midpoint. In the case of `CN1CCC[C@H]1c1cccnc1` [free Nic, nicotine], in test [2] (IC50 ratio of HP-IC50 to IC50 of free nicotine on the same ELISA plate), the HP-IC50/Nic-IC50 was determined as 1.0. Moreover, the IC50 in test [2] (read-out: HP-IC50, free HPs as competitors, 1′Nic-BSA coated plates) was 1410 ± 250 nM.
